# In article PMC10332445 (Journal of medicinal chemistry, 2023):
# What was measured:
# BTK [1] = target: T1, BTK (Homo sapiens, UniProt Q06187); assay: BTK degradation in Ramos cells by western blot; assay type: cell-based; conditions: for BTK degradation by parent molecules: GDC-0853 and/or pomalidomide, 3000 nM to 0.15 nM, Figure S2
# BTK [2] = target: T1, BTK; assay: NanoBRET live-cell target engagement of BTK in HEK293 cells; assay type: cell-based; conditions: for Hill slope, BTK target engagement: number in parentheses, 37 °C
# CRBN = CRBN (Homo sapiens, UniProt Q96SW2); assay: NanoBRET live-cell target engagement of CRBN in HEK293 cells; assay type: cell-based; conditions: number in parentheses, 37 °C
# [3] = target: ternary complex between BTK and CRBN (Homo sapiens, UniProt Q06187+Q96SW2); assay: NanoBRET ternary complex formation assay in HEK293 cells; assay type: cell-based; conditions: for Ternary complex formation (in words): live-cell NanoBRET
# TMD8 cells [4] = assay: Apoptosis by Annexin-V/PI flow cytometry, TMD8 cells; assay type: cell-based; conditions: 48 h; for Induction of apoptosis: TMD8 cells, 3000 nM to 0.15 nM
# Mino cells [5] = assay: Apoptosis by Annexin-V/PI flow cytometry, Mino cells; assay type: cell-based; conditions: 48 h, 3000 nM to 0.15 nM
# BCR signaling pathway = BCR signaling pathway western blots in TMD8 and Mino cells; assay type: cell-based; conditions: 48 h, stimulated with anti-human IgM
# TMD8 cells [6] = assay: Cell viability, CellTiter-Glo 2.0, TMD8 cells; assay type: cell-based; conditions: read-out: TMD8 Cells IC50, 48 h
# Mino cells [7] = assay: Cell viability, CellTiter-Glo 2.0, Mino cells; assay type: cell-based; conditions: read-out: Mino Cells IC50, 48 h (Figure 6) or 72 h (method)
# [8] = test system: CSK, SYK, FRK, HCK, LYN, BAZ1B, TYK2, and Fes/Fps; assay: Label-free proteomics in TMD8 cells: other kinases; assay type: cell-based, human; conditions: 111 nM, 6 h
# IKZF1 and IKZF3 = assay: Label-free proteomics in TMD8 cells: neo-substrates IKZF1/3; assay type: cell-based, human; conditions: 111 nM, 6 h
# GSPT1 = GSPT1 (Homo sapiens, UniProt P15170); assay: Label-free proteomics in TMD8 cells: GSPT1; assay type: cell-based; conditions: 111 nM, 6 h
# [9] = test system: caspase-3, PARP, Bcl-2, Mcl-1; assay: Apoptosis pathway proteins by western blot in TMD8 and Mino cells; assay type: cell-based; conditions: 48 h
# BTK [10] = target: T1, BTK; assay: BTK degradation in seven B-cell malignant cell lines; assay type: cell-based; conditions: Figure S4
# Chain of ternary complex between BTK and CRBN (Q06187 whole entry): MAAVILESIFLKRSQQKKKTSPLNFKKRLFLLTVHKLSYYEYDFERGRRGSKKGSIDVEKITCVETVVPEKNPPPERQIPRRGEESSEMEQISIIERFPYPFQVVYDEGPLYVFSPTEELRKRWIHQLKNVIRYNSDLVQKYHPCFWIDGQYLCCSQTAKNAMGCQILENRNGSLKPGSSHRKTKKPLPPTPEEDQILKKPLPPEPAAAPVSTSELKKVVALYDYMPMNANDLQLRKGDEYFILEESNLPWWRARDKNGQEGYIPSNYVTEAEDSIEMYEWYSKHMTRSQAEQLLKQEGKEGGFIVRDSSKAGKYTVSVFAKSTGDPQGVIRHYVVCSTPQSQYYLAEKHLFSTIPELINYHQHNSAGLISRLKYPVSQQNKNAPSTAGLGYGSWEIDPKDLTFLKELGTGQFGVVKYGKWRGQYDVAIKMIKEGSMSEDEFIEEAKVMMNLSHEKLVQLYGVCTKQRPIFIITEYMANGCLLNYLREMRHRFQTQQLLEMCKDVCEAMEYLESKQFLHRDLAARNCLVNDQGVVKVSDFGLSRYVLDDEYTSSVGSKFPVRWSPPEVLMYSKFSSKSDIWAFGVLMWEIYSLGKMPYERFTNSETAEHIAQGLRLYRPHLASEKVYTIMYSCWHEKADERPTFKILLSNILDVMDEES
# Chain of ternary complex between BTK and CRBN (Q96SW2 whole entry): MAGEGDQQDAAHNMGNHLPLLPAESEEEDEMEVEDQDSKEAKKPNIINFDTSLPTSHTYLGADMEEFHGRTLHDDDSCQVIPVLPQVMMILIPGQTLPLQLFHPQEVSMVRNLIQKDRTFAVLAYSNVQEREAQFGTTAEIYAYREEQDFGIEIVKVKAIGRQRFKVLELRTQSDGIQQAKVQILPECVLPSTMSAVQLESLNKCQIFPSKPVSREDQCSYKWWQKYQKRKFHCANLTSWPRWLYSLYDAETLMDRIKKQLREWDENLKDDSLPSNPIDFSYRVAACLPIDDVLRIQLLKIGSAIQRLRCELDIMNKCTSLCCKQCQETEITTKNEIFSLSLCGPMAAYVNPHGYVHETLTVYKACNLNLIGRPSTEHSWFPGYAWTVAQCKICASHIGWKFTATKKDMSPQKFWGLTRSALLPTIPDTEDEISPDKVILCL
# T1 sequence (Q06187 whole entry): as the sequence (Q06187 whole entry) above
# Chain of CRBN (Q96SW2 whole entry): as the sequence (Q96SW2 whole entry) above
# Chain of GSPT1 (Q96SW2 whole entry partner): as the sequence (Q96SW2 whole entry) above
# Chain of GSPT1 (Q16531 whole entry partner): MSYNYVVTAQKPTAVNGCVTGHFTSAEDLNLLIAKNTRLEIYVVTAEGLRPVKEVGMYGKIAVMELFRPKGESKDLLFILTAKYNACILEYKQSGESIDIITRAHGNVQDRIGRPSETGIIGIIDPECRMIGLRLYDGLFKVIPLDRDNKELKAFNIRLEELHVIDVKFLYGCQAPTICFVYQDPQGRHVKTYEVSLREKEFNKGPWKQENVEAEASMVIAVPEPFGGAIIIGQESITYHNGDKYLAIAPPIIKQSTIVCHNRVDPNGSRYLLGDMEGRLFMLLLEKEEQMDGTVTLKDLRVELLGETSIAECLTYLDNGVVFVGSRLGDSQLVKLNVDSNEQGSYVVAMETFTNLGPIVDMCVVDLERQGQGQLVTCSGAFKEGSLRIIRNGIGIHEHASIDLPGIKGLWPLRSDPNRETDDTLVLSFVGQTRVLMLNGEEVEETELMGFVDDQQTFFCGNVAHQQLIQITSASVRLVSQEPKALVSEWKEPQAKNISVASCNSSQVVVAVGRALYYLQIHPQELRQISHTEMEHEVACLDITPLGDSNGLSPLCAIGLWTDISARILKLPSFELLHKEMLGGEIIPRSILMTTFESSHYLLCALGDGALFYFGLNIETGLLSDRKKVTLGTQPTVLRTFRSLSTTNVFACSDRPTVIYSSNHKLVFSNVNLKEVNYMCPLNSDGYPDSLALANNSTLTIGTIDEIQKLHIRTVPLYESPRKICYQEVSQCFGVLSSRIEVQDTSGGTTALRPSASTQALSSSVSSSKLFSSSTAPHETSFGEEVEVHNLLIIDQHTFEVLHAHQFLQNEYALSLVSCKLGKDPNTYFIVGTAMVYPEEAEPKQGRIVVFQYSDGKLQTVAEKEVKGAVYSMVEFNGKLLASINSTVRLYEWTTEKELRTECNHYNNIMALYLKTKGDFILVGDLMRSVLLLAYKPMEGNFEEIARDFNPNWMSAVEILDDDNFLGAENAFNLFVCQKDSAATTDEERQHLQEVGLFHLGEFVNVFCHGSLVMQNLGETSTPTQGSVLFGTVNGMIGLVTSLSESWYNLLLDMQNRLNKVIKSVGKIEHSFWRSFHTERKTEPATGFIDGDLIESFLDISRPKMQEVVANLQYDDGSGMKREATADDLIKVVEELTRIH
# Chain of GSPT1 (P15170 whole entry): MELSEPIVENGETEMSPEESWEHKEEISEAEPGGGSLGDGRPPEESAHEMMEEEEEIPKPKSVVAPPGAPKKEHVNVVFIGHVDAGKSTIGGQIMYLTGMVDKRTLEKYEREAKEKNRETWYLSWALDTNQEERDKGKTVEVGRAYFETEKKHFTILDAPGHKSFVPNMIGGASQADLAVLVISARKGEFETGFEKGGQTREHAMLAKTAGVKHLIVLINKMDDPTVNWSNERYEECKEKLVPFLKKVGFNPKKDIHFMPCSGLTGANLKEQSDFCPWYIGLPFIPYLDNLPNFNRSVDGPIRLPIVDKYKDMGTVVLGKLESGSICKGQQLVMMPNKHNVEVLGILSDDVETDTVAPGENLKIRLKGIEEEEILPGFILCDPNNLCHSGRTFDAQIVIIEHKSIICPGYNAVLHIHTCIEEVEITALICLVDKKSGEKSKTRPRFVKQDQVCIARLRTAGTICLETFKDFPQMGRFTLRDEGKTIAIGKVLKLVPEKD
Molecule,"Hill slope, BTK target engagement (BTK [2])","Hill slope, CRBN target engagement (CRBN)",Induction of apoptosis (TMD8 cells [4]),Induction of apoptosis (Mino cells [5]),Effect on abundance of other kinases [8],Degradation of neo-substrates IKZF1 and IKZF3 (IKZF1 and IKZF3),Effect on levels of GSPT1 (GSPT1),other results
"C[C@H]1CN(C(=O)CNc2cccc3c2CN(C2CCC(=O)NC2=O)C3=O)CCN1c1ccc(Nc2cc(-c3ccnc(N4CCn5c(cc6c5CC(C)(C)C6)C4=O)c3CO)cn(C)c2=O)nc1 (stereo partly drawn) [PTD12, 3-(4-((2-((S)-4-(6-((2’-(7,7-dimethyl-1-oxo-1,3,4,6,7,8-hexahydro-2H-cyclopenta[4,5]pyrrolo[1,2-a]pyrazin-2-yl)-3’-(hydroxymethyl)-1-methyl-6-oxo-1,6-dihydro-[3,4’-bipyridin]-5-yl)amino)pyridin-3-yl)-3-methylpiperazin-1-yl)-2-oxoethyl)amino)-1-oxoisoindolin-2-yl)piperidine-2,6-dione]",,,,,,,,Decrease in degradation activity compared to PTD10 (BTK [1]; DC50 ratio): ~ 8 fold
"Cc1ncsc1-c1ccc(CNC(=O)[C@@H]2C[C@@H](O)CN2C(=O)[C@@H](NC(=O)COCCOCCCCCCC(=O)N2CCN(c3ccc(Nc4cc(-c5ccnc(N6CCn7c(cc8c7CC(C)(C)C8)C6=O)c5CO)cn(C)c4=O)nc3)[C@@H](C)C2)C(C)(C)C)cc1 [PTD3, (2S,4R)-1-((S)-2-(2-(2-((7-((S)-4-(6-((2’-(7,7-dimethyl-1-oxo-1,3,4,6,7,8-hexahydro-2H-cyclopenta[4,5]pyrrolo[1,2-a]pyrazin-2-yl)-3’-(hydroxymethyl)-1-methyl-6-oxo-1,6-dihydro-[3,4’-bipyridin]-5-yl)amino)pyridin-3-yl)-3-methylpiperazin-1-yl)-7-oxoheptyl)oxy)ethoxy)acetamido)-3,3-dimethylbutanoyl)-4-hydroxy-N-(4-(4-methylthiazol-5-yl)benzyl)pyrrolidine-2-carboxamide]",,,,,,,,"BTK degradation (VHL-based PROTAC) (BTK [1]; Ramos and JeKo-1 cell lines, 17 h, concentrations lower than 3000 nM, Figure S1): no degradation was observed"
"C[C@H]1CN(C(=O)c2cccc3c2C(=O)N(C2CCC(=O)NC2=O)C3=O)CCN1c1ccc(Nc2cc(-c3ccnc(N4CCn5c(cc6c5CC(C)(C)C6)C4=O)c3CO)cn(C)c2=O)nc1 (stereo partly drawn) [PTD13, 4-((S)-4-(6-((2’-(7,7-dimethyl-1-oxo-1,3,4,6,7,8-hexahydro-2H-cyclopenta[4,5]pyrrolo[1,2-a]pyrazin-2-yl)-3’-(hydroxymethyl)-1-methyl-6-oxo-1,6-dihydro-[3,4’-bipyridin]-5-yl)amino)pyridin-3-yl)-3-methylpiperazine-1-carbonyl)-2-(2,6-dioxopiperidin-3-yl)isoindoline-1,3-dione]",1.4,1.0,,,,,,Ternary complex formation (in words) [3]: no ternary complex was observed
"C[C@H]1CN(C2COC2)CCN1c1ccc(Nc2cc(-c3ccnc(N4CCn5c(cc6c5CC(C)(C)C6)C4=O)c3CO)cn(C)c2=O)nc1 [GDC-0853, fenebrutinib, reference compound]",,,a dose-dependent effect was observed,did not cause apoptosis,,,,"BTK degradation by parent molecules (BTK [1]; Ramos cells): no BTK degradation was observed; Effect on BCR signaling pathway (p-PLCγ2, p-BTK, p-AKT, p-NF-κB, PLCγ2, AKT, NF-κB) (BCR signaling pathway): less prominent"
"Nc1cccc2c1C(=O)N(C1CCC(=O)NC1=O)C2=O (stereo not shown) [Pomalidomide, pomalidomide, reference compound]",,,little effect,induced apoptosis in Mino cells in a dose-dependent manner,,,,BTK degradation by parent molecules (BTK [1]; Ramos cells): no BTK degradation was observed
"C[C@H]1CN(C(=O)CCCCCCCCCCCNc2cccc3c2C(=O)N(C2CCC(=O)NC2=O)C3=O)CCN1c1ccc(Nc2cc(-c3ccnc(N4CCn5c(cc6c5CC(C)(C)C6)C4=O)c3CO)cn(C)c2=O)nc1 (stereo partly drawn) [PTD15, 4-((12-((S)-4-(6-((2’-(7,7-dimethyl-1-oxo-1,3,4,6,7,8-hexahydro-2H-cyclopenta[4,5]pyrrolo[1,2-a]pyrazin-2-yl)-3’-(hydroxymethyl)-1-methyl-6-oxo-1,6-dihydro-[3,4’-bipyridin]-5-yl)amino)pyridin-3-yl)-3-methylpiperazin-1-yl)-12-oxododecyl)amino)-2-(2,6-dioxopiperidin-3-yl)isoindoline-1,3-dione]",1.3,0.5,,,,,,Fold less potent than GDC-0853 at engaging BTK (BTK [2]; NanoBRET): 250 fold
"4-((2-(2-(2-(2-azidoethoxy)ethoxy)ethoxy)ethyl)amino)-2-(2,6-dioxopiperidin-3-yl)isoindoline-1,3-dione [P13I, reference compound]",,,,,"significant degradation of some off-targets, specifically, CSK and FRK",degrade,did not affect the levels,IC50 (TMD8 cells [6]): 15 ± 2.8 nM; IC50 (Mino cells [7]): 10.4 ± 2.4 nM
"C[C@H]1CN(C(=O)COc2cccc3c2C(=O)N(C2CCC(=O)NC2=O)C3=O)CCN1c1ccc(Nc2cc(-c3ccnc(N4CCn5c(cc6c5CC(C)(C)C6)C4=O)c3CO)cn(C)c2=O)nc1 (stereo partly drawn) [PTD14, 4-(2-((S)-4-(6-((2’-(7,7-dimethyl-1-oxo-1,3,4,6,7,8-hexahydro-2H-cyclopenta[4,5]pyrrolo[1,2-a]pyrazin-2-yl)-3’-(hydroxymethyl)-1-methyl-6-oxo-1,6-dihydro-[3,4’-bipyridin]-5-yl)amino)pyridin-3-yl)-3-methylpiperazin-1-yl)-2-oxoethoxy)-2-(2,6-dioxopiperidin-3-yl)isoindoline-1,3-dione]",,,,,did not affect the abundance of other kinases,no degradation,did not affect the levels,
"C[C@H]1CN(C(=O)CNc2cccc3c2C(=O)N(C2CCC(=O)NC2=O)C3=O)CCN1c1ccc(Nc2cc(-c3ccnc(N4CCn5c(cc6c5CC(C)(C)C6)C4=O)c3CO)cn(C)c2=O)nc1 (stereo partly drawn) [PTD10, 4-((2-((S)-4-(6-((2’-(7,7-dimethyl-1-oxo-1,3,4,6,7,8-hexahydro-2H-cyclopenta[4,5]pyrrolo[1,2-a]pyrazin-2-yl)-3’-(hydroxymethyl)-1-methyl-6-oxo-1,6-dihydro-[3,4’-bipyridin]-5-yl)amino)pyridin-3-yl)-3-methylpiperazin-1-yl)-2-oxoethyl)amino)-2-(2,6-dioxopiperidin-3-yl)isoindoline-1,3-dione]",1.9,1.0,induce apoptosis in a dose-dependent manner,induce apoptosis in a dose-dependent manner,did not affect the abundance of other kinases,degrade,did not affect the levels,"Concentration at which Hook effect was observed (BTK [1]; BTK degradation, Figure 3): > 333 nM; BTK degradation on co-treatment with competitor (BTK [1]; Ramos cells, 111 nM PTD10 with 1 μM GDC-0853 or 20 μM iberdomide (CC-220), 17 h): BTK degradation was completely blocked; BTK degradation after pre-treatment with bortezomib or MLN-4924 (BTK [1]; Ramos cells, pre-treated 2 h, then 111 nM PTD10 for 4 h): inhibition of BTK degradation; Ternary complex formation (in words) [3]: prominent ternary complex formation; Ternary Complex Formation (maximum) ([3]; maximum ternary complex formation setting the BRET ratio for PTD10 at 100%): 100%; Concentration at which robust apoptosis was detected (TMD8 cells [4]; TMD8 and Mino cell lines): 333 nM; Effect on BCR signaling pathway (p-PLCγ2, p-BTK, p-AKT, p-NF-κB, PLCγ2, AKT, NF-κB) (BCR signaling pathway): Robust downregulation was observed; Levels of Bcl-2 and Mcl-1 [9]: significant down-regulation; Levels of cleaved-PARP and cleaved caspase-3 [9]: increase; BTK degradation in B-cell malignant cell lines (BTK [10]): potent degradation effects"
